Where two headings read alike, the source gives them in different places. *1 amine or outer side, *2 acyl side, *3 side chain or, on linkers, in order; H or OH if unused. Where a SMILES comes first, the peptide text is derived from it. Side-chain parts run from the residue outwards. [ ]: non-standard residue; d: D form. The star is where a group is joined. αMePhe(2-F) = C[C@](N)(Cc1ccccc1F)C(=O)O; γGlu = O=C(O)[C@H](CCC(=O)[*:2])N[*:1]; C14 diacid = O=C(O)CCCCCCCCCCCCC(=O)*; αMeY = C[C@](N)(Cc1ccc(O)cc1)C(=O)O; 4Pal = N[C@@H](Cc1ccncc1)C(=O)O; αMeL = CC(C)C[C@](C)(N)C(=O)O; Orn = NCCC[C@H](N)C(=O)O; AEEA = NCCOCCOCC(=O)O; Aib = CC(C)(N)C(=O)O
Columns and labels:
Format in all cases: cell-based
[1] = target: T1, hGIPR (Homo sapiens, UniProt P48546); test: Functional cAMP formation (HTRF) in HEK-293 clonal cells expressing hGIPR, 0.1% bovine casein, without or with 1.0% human serum albumin; conditions: 37° C.; for Emax: HEK293, cAMP, percent of maximal response to GIP(1-42)NH2, read-out: hGIPR Emax, % ± SEM; for EC50: cAMP, read-out: hGIPR EC50, nM (SEM, n)
T1 construct: expressed in transfected cells
T1 sequence (P48546 22-466): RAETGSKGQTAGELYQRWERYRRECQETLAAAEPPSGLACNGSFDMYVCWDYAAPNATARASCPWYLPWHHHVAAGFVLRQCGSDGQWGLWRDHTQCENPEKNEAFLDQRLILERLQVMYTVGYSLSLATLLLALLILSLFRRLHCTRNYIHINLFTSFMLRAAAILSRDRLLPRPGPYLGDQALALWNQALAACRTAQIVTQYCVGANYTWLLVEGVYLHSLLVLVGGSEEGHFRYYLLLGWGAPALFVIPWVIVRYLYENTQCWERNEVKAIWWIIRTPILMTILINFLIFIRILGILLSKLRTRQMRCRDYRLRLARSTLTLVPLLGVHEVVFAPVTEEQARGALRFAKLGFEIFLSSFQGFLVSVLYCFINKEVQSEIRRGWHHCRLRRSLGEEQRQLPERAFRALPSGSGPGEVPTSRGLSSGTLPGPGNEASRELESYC
How it was run: (§1)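 Cells were stimulated with peptide for 30 min at 37° C, then lysed in buffer carrying cAMP-d2 and anti-cAMP Eu3+-cryptate for a competitive HTRF read after at least 60 min at room temperature. The 665/620 nm ratio was converted to nM cAMP against a standard curve.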

[2] = target: T2, hGCGR (Homo sapiens, UniProt P47871); test: Functional cAMP formation (HTRF) in HEK-293 clonal cells expressing hGCGR, 0.1% bovine casein, without or with 1.0% human serum albumin; conditions: cAMP, 37° C., read-out: hGCGR EC50, nM (SEM, n)
T2 construct: expressed in transfected cells
T2 sequence (P47871 26-477): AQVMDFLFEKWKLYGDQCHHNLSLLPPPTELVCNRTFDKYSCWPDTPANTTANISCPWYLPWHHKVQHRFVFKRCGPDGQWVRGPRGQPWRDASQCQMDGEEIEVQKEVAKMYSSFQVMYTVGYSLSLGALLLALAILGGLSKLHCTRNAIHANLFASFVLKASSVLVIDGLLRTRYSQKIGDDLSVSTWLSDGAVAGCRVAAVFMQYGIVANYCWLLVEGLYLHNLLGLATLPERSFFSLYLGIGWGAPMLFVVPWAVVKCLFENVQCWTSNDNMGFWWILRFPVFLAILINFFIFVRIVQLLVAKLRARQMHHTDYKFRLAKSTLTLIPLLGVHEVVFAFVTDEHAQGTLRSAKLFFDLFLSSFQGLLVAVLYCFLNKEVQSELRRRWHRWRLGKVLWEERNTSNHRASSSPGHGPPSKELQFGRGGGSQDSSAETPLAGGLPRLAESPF
How it was run: as §1

[3] = target: hGLP-1R (Homo sapiens, UniProt P43220); test: Functional cAMP formation (HTRF) in HEK-293 clonal cells expressing hGLP-1R, 0.1% bovine casein, without or with 1.0% human serum albumin; set-up: expressed in transfected cells; conditions: 37° C.; for Emax: HEK293, cAMP, percent of maximal response to GLP-1(7-36)NH2, read-out: hGLP-1R Emax, % ± SEM; for EC50: cAMP, read-out: hGLP-1R EC50, nM (SEM, n)
Sequence of hGLP-1R (P43220 24-463): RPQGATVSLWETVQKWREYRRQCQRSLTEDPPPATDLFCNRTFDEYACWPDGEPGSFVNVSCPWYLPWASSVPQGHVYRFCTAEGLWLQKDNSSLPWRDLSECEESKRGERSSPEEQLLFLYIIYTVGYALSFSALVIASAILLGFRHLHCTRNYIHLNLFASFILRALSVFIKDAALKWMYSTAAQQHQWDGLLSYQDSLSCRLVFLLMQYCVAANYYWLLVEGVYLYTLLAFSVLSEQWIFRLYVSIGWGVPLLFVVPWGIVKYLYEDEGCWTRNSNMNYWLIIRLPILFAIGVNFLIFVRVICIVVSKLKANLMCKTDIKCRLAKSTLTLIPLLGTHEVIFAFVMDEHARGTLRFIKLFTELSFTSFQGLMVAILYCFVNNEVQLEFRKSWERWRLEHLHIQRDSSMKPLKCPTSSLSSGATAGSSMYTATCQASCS
How it was run: as §1

[4] = 0.1% bovine casein and 1.0% human serum albumin
[5] = 0.1% bovine casein (no human serum albumin), geometric mean
[6] = 0.1% bovine casein and 1.0% human serum albumin, geometric mean (SEM, n)
[7] = 0.1% bovine casein, arithmetic mean

CC[C@H](C)[C@H](NC(=O)[C@H](CCCN)NC(=O)[C@H](CC(=O)O)NC(=O)[C@H](CC(C)C)NC(=O)[C@](C)(CC(C)C)NC(=O)[C@@H](NC(=O)C(C)(C)NC(=O)[C@H](Cc1ccncc1)NC(=O)[C@H](CC(=O)O)NC(=O)[C@H](CO)NC(=O)[C@@H](NC(=O)[C@](C)(Cc1ccccc1F)NC(=O)[C@@H](NC(=O)CNC(=O)[C@H](CCC(=O)O)NC(=O)C(C)(C)NC(=O)[C@@H](N)Cc1ccc(O)cc1)[C@@H](C)O)[C@@H](C)O)[C@@H](C)CC)C(=O)N[C@@H](C)C(=O)N[C@@H](CCC(N)=O)C(=O)NC(C)(C)C(=O)N[C@@H](CCC(=O)O)C(=O)N[C@@H](Cc1ccccc1)C(=O)N[C@H](C(=O)N[C@@H](CCCCNC(=O)COCCOCCNC(=O)CC[C@H](NC(=O)CCCCCCCCCCCCC(=O)O)C(=O)O)C(=O)N[C@@](C)(Cc1ccc(O)cc1)C(=O)N[C@@H](CC(C)C)C(=O)N[C@H](C(=O)N[C@@H](CCCCNC(=O)COCCOCCNC(=O)CC[C@H](NC(=O)CCCCCCCCCCCCC(=O)O)C(=O)O)C(=O)NCC(=O)NCC(=O)N1CCC[C@H]1C(=O)N[C@@H](CO)C(=O)N[C@@H](CO)C(=O)NCC(=O)N[C@@H](C)C(=O)N1CCC[C@H]1C(=O)N1CCC[C@H]1C(=O)N1CCC[C@H]1C(=O)N[C@@H](CO)C(N)=O)[C@@H](C)CC)[C@@H](C)CC [Example 339]
Emax [1, 4]: 87.3% | EC50 [1, 5]: 0.019 nM | EC50 [2, 5]: > 10100 nM | EC50 [2, 6]: > 10100 nM | Emax [3, 4]: 115% | Emax [3, 7]: 113% | EC50 [3, 5]: 0.308 nM

CC[C@H](C)[C@H](NC(=O)[C@H](CCCN)NC(=O)[C@H](CC(=O)O)NC(=O)[C@H](CC(C)C)NC(=O)[C@](C)(CC(C)C)NC(=O)[C@@H](NC(=O)C(C)(C)NC(=O)[C@H](Cc1ccncc1)NC(=O)[C@H](CC(=O)O)NC(=O)[C@H](CO)NC(=O)[C@@H](NC(=O)[C@](C)(Cc1ccccc1F)NC(=O)[C@@H](NC(=O)CNC(=O)[C@H](CCC(=O)O)NC(=O)C(C)(C)NC(=O)[C@@H](N)Cc1ccc(O)cc1)[C@@H](C)O)[C@@H](C)O)[C@@H](C)CC)C(=O)N[C@@H](C)C(=O)N[C@@H](CCC(N)=O)C(=O)NC(C)(C)C(=O)N[C@@H](CCCCNC(=O)COCCOCCNC(=O)CC[C@H](NC(=O)CCCCCCCCCCCCC(=O)O)C(=O)O)C(=O)N[C@@H](Cc1ccccc1)C(=O)N[C@H](C(=O)N[C@H](CCC(=O)O)C(=O)N[C@@](C)(Cc1ccc(O)cc1)C(=O)N[C@@H](CC(C)C)C(=O)N[C@H](C(=O)N[C@@H](CCCCNC(=O)COCCOCCNC(=O)CC[C@H](NC(=O)CCCCCCCCCCCCC(=O)O)C(=O)O)C(=O)NCC(=O)NCC(=O)N1CCC[C@H]1C(=O)N[C@@H](CO)C(=O)N[C@@H](CO)C(=O)NCC(=O)N[C@@H](C)C(=O)N1CCC[C@H]1C(=O)N1CCC[C@H]1C(=O)N1CCC[C@H]1C(=O)N[C@@H](CO)C(N)=O)[C@@H](C)CC)[C@@H](C)CC [Example 340]
Emax [1, 4]: 87.9% | Emax [1, 7]: 95.2% | EC50 [1, 5]: 0.0206 nM | EC50 [2, 5]: > 9950 nM | EC50 [2, 6]: > 9950 nM | Emax [3, 4]: 112% | Emax [3, 7]: 105% | EC50 [3, 5]: 0.409 nM

CC[C@H](C)[C@H](NC(=O)[C@H](CCCN)NC(=O)[C@H](CC(=O)O)NC(=O)[C@H](CC(C)C)NC(=O)[C@](C)(CC(C)C)NC(=O)[C@@H](NC(=O)C(C)(C)NC(=O)[C@H](Cc1ccncc1)NC(=O)[C@H](CC(=O)O)NC(=O)[C@H](CO)NC(=O)[C@@H](NC(=O)[C@](C)(Cc1ccccc1F)NC(=O)[C@@H](NC(=O)CNC(=O)[C@H](CCC(=O)O)NC(=O)C(C)(C)NC(=O)[C@@H](N)Cc1ccc(O)cc1)[C@@H](C)O)[C@@H](C)O)[C@@H](C)CC)C(=O)N[C@@H](C)C(=O)N[C@@H](CCC(N)=O)C(=O)NC(C)(C)C(=O)N[C@@H](CCCCNC(=O)COCCOCCNC(=O)CC[C@H](NC(=O)CCCCCCCCCCCCC(=O)O)C(=O)O)C(=O)N[C@@H](Cc1ccccc1)C(=O)N[C@H](C(=O)N[C@H](CCC(=O)O)C(=O)N[C@@](C)(Cc1ccc(O)cc1)C(=O)N[C@@H](CC(C)C)C(=O)N[C@H](C(=O)N[C@@H](CCC(=O)O)C(=O)NCC(=O)NCC(=O)N1CCC[C@H]1C(=O)N[C@@H](CO)C(=O)N[C@@H](CO)C(=O)NCC(=O)N[C@@H](C)C(=O)N1CCC[C@H]1C(=O)N1CCC[C@H]1C(=O)N1CCC[C@H]1C(=O)N[C@@H](CO)C(=O)N[C@@H](CCCCNC(=O)COCCOCCNC(=O)CC[C@H](NC(=O)CCCCCCCCCCCCC(=O)O)C(=O)O)C(N)=O)[C@@H](C)CC)[C@@H](C)CC [Example 341] (H-Y[Aib]EGT[αMePhe(2-F)]TSD[4Pal][Aib]I[αMeL]LD[Orn]IAQ[Aib]K([AEEA-γGlu-C14 diacid])FI[dE][αMeY]LIEGGPSSGAPPPSK([AEEA-γGlu-C14 diacid])-NH2)
Emax [1, 4]: 83.6% | Emax [1, 7]: 91.4% | EC50 [1, 5]: 0.0127 nM | EC50 [2, 5]: > 9950 nM | EC50 [2, 6]: > 9950 nM | Emax [3, 4]: 113% | EC50 [3, 5]: 0.329 nM

CC[C@H](C)[C@H](NC(=O)[C@H](CCCN)NC(=O)[C@H](CC(=O)O)NC(=O)[C@H](CC(C)C)NC(=O)[C@](C)(CC(C)C)NC(=O)[C@@H](NC(=O)C(C)(C)NC(=O)[C@H](Cc1ccncc1)NC(=O)[C@H](CC(=O)O)NC(=O)[C@H](CO)NC(=O)[C@@H](NC(=O)[C@](C)(Cc1ccccc1F)NC(=O)[C@@H](NC(=O)CNC(=O)[C@H](CCC(=O)O)NC(=O)C(C)(C)NC(=O)[C@@H](N)Cc1ccc(O)cc1)[C@@H](C)O)[C@@H](C)O)[C@@H](C)CC)C(=O)N[C@@H](C)C(=O)N[C@@H](CCC(N)=O)C(=O)NC(C)(C)C(=O)N[C@@H](CCC(=O)O)C(=O)N[C@@H](Cc1ccccc1)C(=O)N[C@H](C(=O)N[C@@H](CCCCNC(=O)COCCOCCNC(=O)COCCOCCNC(=O)COCCOCCNC(=O)CC[C@H](NC(=O)CCCCCCCCCCCCC(=O)O)C(=O)O)C(=O)N[C@@](C)(Cc1ccc(O)cc1)C(=O)N[C@@H](CC(C)C)C(=O)N[C@H](C(=O)N[C@@H](CCCCNC(=O)COCCOCCNC(=O)COCCOCCNC(=O)COCCOCCNC(=O)CC[C@H](NC(=O)CCCCCCCCCCCCC(=O)O)C(=O)O)C(=O)NCC(=O)NCC(=O)N1CCC[C@H]1C(=O)N[C@@H](CO)C(=O)N[C@@H](CO)C(=O)NCC(=O)N[C@@H](C)C(=O)N1CCC[C@H]1C(=O)N1CCC[C@H]1C(=O)N1CCC[C@H]1C(=O)N[C@@H](CO)C(N)=O)[C@@H](C)CC)[C@@H](C)CC [Example 342]
Emax [1, 4]: 89.3% | EC50 [1, 5]: 0.0105 nM | EC50 [1, 6]: 1.04 nM | EC50 [2, 5]: > 10100 nM | EC50 [2, 6]: > 9950 nM | Emax [3, 7]: 113% | EC50 [3, 5]: 0.191 nM | EC50 [3, 6]: 13.6 nM

CC[C@H](C)[C@H](NC(=O)[C@H](CCCN)NC(=O)[C@H](CC(=O)O)NC(=O)[C@H](CC(C)C)NC(=O)[C@](C)(CC(C)C)NC(=O)[C@@H](NC(=O)C(C)(C)NC(=O)[C@H](Cc1ccc(O)cc1)NC(=O)[C@H](CC(=O)O)NC(=O)[C@H](CO)NC(=O)[C@@H](NC(=O)[C@](C)(Cc1ccccc1F)NC(=O)[C@@H](NC(=O)CNC(=O)[C@H](CCC(=O)O)NC(=O)C(C)(C)NC(=O)[C@@H](N)Cc1ccc(O)cc1)[C@@H](C)O)[C@@H](C)O)[C@@H](C)CC)C(=O)N[C@@H](C)C(=O)N[C@@H](CCC(N)=O)C(=O)NC(C)(C)C(=O)N[C@@H](CCC(=O)O)C(=O)N[C@@H](Cc1ccccc1)C(=O)N[C@H](C(=O)N[C@@H](CCCCNC(=O)COCCOCCNC(=O)COCCOCCNC(=O)COCCOCCNC(=O)CC[C@H](NC(=O)CCCCCCCCCCCCC(=O)O)C(=O)O)C(=O)N[C@@](C)(Cc1ccc(O)cc1)C(=O)N[C@@H](CC(C)C)C(=O)N[C@H](C(=O)N[C@@H](CCCCNC(=O)COCCOCCNC(=O)COCCOCCNC(=O)COCCOCCNC(=O)CC[C@H](NC(=O)CCCCCCCCCCCCC(=O)O)C(=O)O)C(=O)NCC(=O)NCC(=O)N1CCC[C@H]1C(=O)N[C@@H](CO)C(=O)N[C@@H](CO)C(=O)NCC(=O)N[C@@H](C)C(=O)N1CCC[C@H]1C(=O)N1CCC[C@H]1C(=O)N1CCC[C@H]1C(=O)N[C@@H](CO)C(N)=O)[C@@H](C)CC)[C@@H](C)CC [Example 343]
Emax [1, 4]: 90.2% | Emax [1, 7]: 98.8% | EC50 [1, 5]: 0.0111 nM | EC50 [2, 5]: > 9950 nM | EC50 [2, 6]: > 9950 nM | Emax [3, 4]: 98.2% | EC50 [3, 5]: 0.275 nM
